# Reference: patent publication US20260034094A1, “COMPOSITIONS AND METHODS FOR INDUCING FERROPTOSIS” (Kojin Therapeutics, Inc., priority 2022, published 2026)
# pEC50, pIC50: −log10 of the molar value. Where two headings read alike, the source gives them in different places.
# What was measured:
# RKN cells = test: RKN cell profiling assay (cell viability, CellTiter-Glo); type: cell-based; conditions: read-out: Cell Killing EC50
# Outline: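 Cells seeded at 1,000/well in F-12 with 10% FBS, left to adhere 24 h, then compound-treated for 96 h at 0.5% final DMSO. Viability by CellTiter-Glo luminescence; EC50 from four-parameter logistic fit. Ferroptosis rescue runs included 1.5 μM ferrostatin-1 added at seeding.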
# human recombinant GCL = human recombinant GCL (Homo sapiens (Human), UniProt P48506); test: GCL enzyme profiling assay (ADP-Glo luminescence); type: biochemical; conditions: read-out: GCL IC50
# Protocol: The GCL enzyme assay was run in 50 mM HEPES, pH 7.5, containing 150 mM NaCl, 30 mM MgCl2, 0.5 mM EDTA, 1 mM DTT, 0.1 mg/mL BSA, and 0.02% or in the present case 0.2% F-127 in a total assay volume of 10 μL or 10 mL. Compound in pure DMSO was stamped in assay plates (Greiner black 384-well) or appropriate containers using a D300e digital dispenser (TECAN) and the final DMSO concentration was normalized to 1%. A 5 mL, or in the present case, 5 μL mixture of human recombinant GCL (final concentration: 5 nM) and ATP (final concentration: 0.6 mM) was added and the solution was incubated at room temperature (22° C.) for 1 h. The GCL enzyme reaction was initiated by addition of a 5 μL mixture of mono g-glutamate or in the present example, monosodium glutamate (final concentration: 1 mM) and a-aminobutyrate or α-aminobutyrate (final concentration: 1.2 mM). The reaction was stopped after 1 h or in the present case, 2 h by addition of 5 mL, or in the present case, 5 μL ADP GLO Reagent (Promega). The resulting solution was incubated for 2 h at room temperature. This was then followed by addition of 5 mL, or in the present case, 5 μL ADP GLO Detection. After incubation at room temperature for 30 min, the plates were read on a plate reader (PheraStar) using a luminescence protocol to quantify the GCL enzyme activity from each reaction solution. The data was analyzed using a four-parameter logistic equation to calculate IC50.
# [1] = human recombinant GCL 5 nM, 1 h preincubation with ATP
# Chain of human recombinant GCL (P48506 whole entry): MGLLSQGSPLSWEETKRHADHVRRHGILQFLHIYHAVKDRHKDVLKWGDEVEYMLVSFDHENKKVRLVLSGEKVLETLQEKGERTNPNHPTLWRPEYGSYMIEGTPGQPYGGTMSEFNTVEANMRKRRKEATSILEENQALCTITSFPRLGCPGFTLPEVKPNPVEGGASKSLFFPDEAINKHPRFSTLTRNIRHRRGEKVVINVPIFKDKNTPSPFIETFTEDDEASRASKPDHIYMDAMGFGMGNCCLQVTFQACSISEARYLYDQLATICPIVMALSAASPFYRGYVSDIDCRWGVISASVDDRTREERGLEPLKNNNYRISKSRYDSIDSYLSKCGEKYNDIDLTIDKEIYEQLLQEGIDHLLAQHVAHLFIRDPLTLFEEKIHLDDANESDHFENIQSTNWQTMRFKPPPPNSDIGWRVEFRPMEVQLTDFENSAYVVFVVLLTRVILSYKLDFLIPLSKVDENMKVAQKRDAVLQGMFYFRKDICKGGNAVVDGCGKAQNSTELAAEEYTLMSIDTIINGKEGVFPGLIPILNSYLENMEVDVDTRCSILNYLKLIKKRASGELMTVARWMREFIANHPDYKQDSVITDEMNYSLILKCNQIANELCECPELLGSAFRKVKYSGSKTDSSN
SMILES,pEC50 (RKN cells; cell viability),"pIC50 (human recombinant GCL; human recombinant GCL, ADP-Glo)","pEC50 (RKN cells; 96 h, 96 h exposure)",pIC50 (human recombinant GCL; [1])
N=S(=O)(CC[C@H](N)C(=O)O)CCC(O)(C(=O)O)C(F)(F)F (stereo partly shown) [Compound 333],≤ 3.00,2.70 to 4.70,–,–
CCCC(C)(C)OC(=O)[C@@H](N)CCS(=N)(=O)CCC(C)(C)C (stereo partly shown) [Compound 99],–,–,> 3.00,< 2.70
COC(CC[S@](=N)(=O)CC[C@H](N)C(=O)O)C(F)(F)F (stereo partly shown) [Compound 178],–,–,> 3.00,≥ 4.70
"N=S(=O)(CC[C@H](N)C(=O)O)CCC(O)(CC(F)(F)F)c1ccc(-c2ccc(Cl)cc2Cl)cc1 (stereo partly drawn) [Compound 494, (2S)-2-amino-4-(3-(2′, 4′-dichloro-[1, 1′-biphenyl]-4-yl)-5,5,5-trifluoro-3-hydroxypentylsulfonimidoyl) butanoic acid]",≤ 3.00,≥ 4.70,–,–
"CCCCS(=N)(=O)CC[C@H](N)C#N (stereo partly drawn) [Compound 199, (2S)-2-amino-4-(butylsulfonimidoyl)butanenitrile]",–,–,≤ 3.00,< 2.70
"N#CC1CC=C(c2ccc(C(CCS(=N)(=O)CC[C@H](N)C(=O)O)C(F)(F)F)cc2)CC1 (stereo partly drawn) [Compound 214, (2S)-2-amino-4-(3-(4′-cyano-2′,3′,4′,5′-tetrahydro-[1,1′-biphenyl]-4-yl)-4,4,4-trifluorobutylsulfonimidoyl)butanoic acid]",≤ 3.00,≥ 4.70,–,–
"N=S(=O)(CCC(N)C(F)(F)F)CC[C@H](N)C(=O)O (stereo partly drawn) [Compound 210, (2S)-2-amino-4-(3-amino-4,4,4-trifluorobutylsulfonimidoyl)butanoic acid]",–,–,> 3.00,2.70 to 4.70
CCC(C)(C)OC(=O)[C@@H](N)CCS(=N)(=O)CCCC(F)(F)F (stereo partly shown) [Compound 484],> 3.00,2.70 to 4.70,–,–
N=S(=O)(CCC(c1ccc(-c2ccc(Cl)c(C(F)(F)F)c2)cc1)C(F)(F)F)CC[C@H](N)C(=O)O (stereo partly shown) [Compound 237],> 3.00,≥ 4.70,–,–
CC(C)(C)CCS(=N)(=O)CC[C@H](N)C(=O)O (stereo partly shown) [Compound 187],–,–,> 3.00,2.70 to 4.70
CC(C)(C#N)CCS(=N)(=O)CC[C@H](N)C(=O)O (stereo partly shown) [Compound 171],–,–,≤ 3.00,2.70 to 4.70
N=S(=O)(CCC(c1ccc(-c2cc(F)cc(F)c2)cc1)C(F)(F)F)CC[C@H](N)C(=O)O (stereo partly shown) [Compound 222],> 3.00,≥ 4.70,–,–
N=S(=O)(CC[C@H](N)C(=O)O)CCC(O)(c1ccnc(C(F)(F)F)c1)C(F)(F)F (stereo partly shown) [Compound 364],≤ 3.00,2.70 to 4.70,–,–
Cc1ccc(CCS(=N)(=O)CC[C@H](N)C(=O)O)c(F)c1 (stereo partly shown) [Compound 37],–,–,≤ 3.00,≥ 4.70
N=S(=O)(CC[C@H](N)C(=O)O)CCC(O)(c1ccon1)C(F)(F)F (stereo partly shown) [Compound 368],> 3.00,2.70 to 4.70,–,–
CCc1ccccc1CCS(=N)(=O)CC[C@H](N)C(=O)O (stereo partly shown) [Compound 33],–,–,≤ 3.00,≥ 4.70
N[C@@H](CCS(=O)(=O)CCC(O)(c1cc(-c2ccccc2)sn1)C(F)(F)F)C(=O)O (stereo partly shown) [Compound 377],≤ 3.00,≥ 4.70,–,–
N=S(=O)(CC[C@H](N)C(=O)O)CCC(O)(c1ccc(-c2ccccc2O)cc1)C(F)(F)F (stereo partly shown) [Compound 434],> 3.00,≥ 4.70,–,–
N=S(=O)(CCC(n1ccc(-c2cccnc2)n1)C(F)(F)F)CC[C@H](N)C(=O)O (stereo partly shown) [Compound 414],≤ 3.00,2.70 to 4.70,–,–
"N[C@H]1CCS(=O)(CCCC(F)(F)F)=NC1=O (stereo partly drawn) [Compound 202, (1S,4R)-4-amino-1-(4,4,4-trifluorobutyl)-5,6-dihydro-1,2-thiazin-3 (4H)-one 1-oxide]",–,–,> 3.00,2.70 to 4.70
N[C@@H](CCSCCC(O)(c1ncc(-c2ccc(Cl)cc2Cl)cn1)C(F)(F)F)C(=O)O (stereo partly shown) [Compound 469],≤ 3.00,2.70 to 4.70,–,–
N=S(=O)(CCC(c1ccc(-c2cncc(C(F)(F)F)c2)cc1)C(F)(F)F)CC[C@H](N)C(=O)O (stereo partly shown) [Compound 250],≤ 3.00,≥ 4.70,–,–
"CCCCS(=N)(=O)CC[C@H](N)C(N)=O (stereo partly drawn) [Compound 105, (2S)-2-amino-4-(butylsulfonimidoyl)butanamide]",–,–,≤ 3.00,< 2.70
N=S(=O)(CC[C@H](N)C(=O)O)CCC1(c2ccc3[nH]nnc3c2)CCC1 (stereo partly shown) [Compound 395],> 3.00,2.70 to 4.70,–,–

SMILES,pEC50 (RKN cells; cell viability),"pIC50 (human recombinant GCL; human recombinant GCL, ADP-Glo)","pEC50 (RKN cells; 96 h, 96 h exposure)",pIC50 (human recombinant GCL; [1])
N=S(=O)(CC[C@H](N)C(=O)O)CCC(O)(c1ccc(Oc2ccc(Cl)cc2Cl)cn1)C(F)(F)F (stereo partly shown) [Compound 380],> 3.00,≥ 4.70,–,–
"N=S(=O)(CC[C@H](N)C(=O)O)CCC1(NC(N)=O)CCC1 (stereo partly drawn) [Compound 206, (2S)-2-amino-4-(2-(1-ureidocyclobutyl)ethylsulfonimidoyl)butanoic acid]",–,–,> 3.00,2.70 to 4.70
N=S(=O)(CCC(n1ccc(C2CC2)n1)C(F)(F)F)CC[C@H](N)C(=O)O (stereo partly shown) [Compound 413],≤ 3.00,2.70 to 4.70,–,–
"N=S(=O)(CC[C@H](N)C(=O)O)CCC1(O)CC1 (stereo partly drawn) [Compound 135, (2S)-2-amino-4-(2-(1-hydroxycyclopropyl)ethylsulfonimidoyl)butanoic acid]",–,–,> 3.00,2.70 to 4.70
"N=S(=O)(CCC(n1nccn1)C(F)(F)F)CC[C@H](N)C(=O)O (stereo partly drawn) [Compound 404, (2S)-2-amino-4-[[4,4,4-trifluoro-3-(triazol-2-yl)butyl]sulfonimidoyl]butanoic acid]",> 3.00,2.70 to 4.70,–,–
Cc1ccc(-c2ccc(C(O)(CCS(=N)(=O)CC[C@H](N)C(=O)O)C(F)(F)F)cc2C#N)cc1 (stereo partly shown) [Compound 452],≤ 3.00,≥ 4.70,–,–
N=S(=O)(CC[C@H](N)C(=O)O)CCC1(n2ncc(-c3ccccc3)n2)CCC1 (stereo partly shown) [Compound 420],≤ 3.00,≥ 4.70,–,–
N=S(=O)(CC[C@H](N)C(=O)O)CCC(O)(c1ccc(-c2cccc3ccccc23)cc1)C(F)(F)F (stereo partly shown) [Compound 444],> 3.00,≥ 4.70,–,–
"N=[S@@](=O)(CC[C@H](N)C(=O)O)CC[C@](O)(c1ccccc1)C(F)(F)F [Compound 348, (S)-2-amino-4-((R,3S)-4,4,4-trifluoro-3-hydroxy-3-phenylbutylsulfonimidoyl)butanoic acid]",> 3.00,≥ 4.70,–,–
"CC(C)(C)CCS1(=O)=NC(=O)[C@@H](N)CC1 (stereo partly drawn) [Compound 201, (1S,4R)-4-amino-1-(3,3-dimethylbutyl)-5,6-dihydro-1,2-thiazin-3 (4H)-one 1-oxide]",–,–,> 3.00,2.70 to 4.70
"CCOC(=O)[C@@H](N)CC[S@@](=N)(=O)CC[C@@](C)(O)C(F)(F)F [Compound 487, ethyl (S)-2-amino-4-((R,3R)-4,4,4-trifluoro-3-hydroxy-3-methylbutylsulfonimidoyl)butanoate]",> 3.00,2.70 to 4.70,–,–
N=S(=O)(CCc1ccccc1F)CC[C@H](N)C(=O)O (stereo partly shown) [Compound 23],–,–,≤ 3.00,2.70 to 4.70
N=S(=O)(CC[C@H](N)C(=O)O)CCC(O)(c1ccc(-c2ccc(Cl)cc2Cl)cc1)C(F)(F)F (stereo partly shown) [Compound 428],> 3.00,≥ 4.70,–,–
N=S(=O)(CC[C@H](N)C(=O)O)CCC12CC(C1)C2 (stereo partly shown) [Compound 294],> 3.00,≥ 4.70,–,–
CCCCOC(=O)[C@@H](N)CCS(=N)(=O)CCc1cccc(F)c1C(F)(F)F (stereo partly shown) [Compound 92],–,–,> 3.00,2.70 to 4.70
"N=S(=O)(CC[C@H](N)C(=O)O)CCC1(n2nccn2)CCC1 (stereo partly drawn) [Compound 405, (2S)-4-(2-(1-(2H-1,2,3-triazol-2-yl)cyclobutyl)ethylsulfonimidoyl)-2-aminobutanoic acid]",> 3.00,2.70 to 4.70,–,–
"N=S(=O)(CC[C@H](N)C(=O)O)CCC1(C(N)=O)CCC1 (stereo partly drawn) [Compound 188, (2S)-2-amino-4-(2-(1-carbamoylcyclobutyl)ethylsulfonimidoyl)butanoic acid]",–,–,> 3.00,2.70 to 4.70
N=S(=O)(CC[C@H](N)C(=O)O)CCC(O)(c1ccc(-c2ccc(C(F)(F)F)cc2C(F)(F)F)cc1)C(F)(F)F (stereo partly shown) [Compound 439],> 3.00,≥ 4.70,–,–
N=S(=O)(CCC(c1c[nH]c2ccccc12)C(F)(F)F)CC[C@H](N)C(=O)O (stereo partly shown) [Compound 64],–,–,> 3.00,≥ 4.70
CCCCOC(=O)[C@@H](N)CCS(=N)(=O)CCCC(F)(F)F (stereo partly shown) [Compound 79],–,–,> 3.00,< 2.70
N=S(=O)(CC[C@H](N)C(=O)O)CCC(O)(c1ccc(Cc2ccc(Cl)cc2Cl)cc1)C(F)(F)F (stereo partly shown) [Compound 457],≤ 3.00,≥ 4.70,–,–
CCOC(=O)C1(CCS(=N)(=O)CC[C@H](N)C(=O)O)CCC1 (stereo partly shown) [Compound 189],–,–,> 3.00,2.70 to 4.70
"CC(C)(C)CC[S@@](=N)(=O)CC[C@H](N)C(=O)Nc1cccnc1 (single isomer, unassigned) [Compound 102]",–,–,≤ 3.00,< 2.70
